Experimental data taken from US20080312301A1, “Substituted N-Benzo[D]Isoxazol-3-Yl-Amine Compounds as Inhibitors of Mglur5, Serotonin (5-Ht) and Noradrenaline Receptors, and Uses Thereof” (Gruenenthal GmbH, priority 2005, published 2008).

How the values were obtained:
NA transporter = molecular target: T1, NA transporter (Rattus norvegicus, UniProt Q63380); test: Noradrenaline (NA) uptake inhibition in rat brain synaptosomes (hypothalamus), [3H]-NA; format: biochemical; conditions: conc. 10 μM
T1 construct: from tissue; host or cells: rat hypothalamus synaptosomes (P2 fraction)
T1 sequence (Q63380 1-617): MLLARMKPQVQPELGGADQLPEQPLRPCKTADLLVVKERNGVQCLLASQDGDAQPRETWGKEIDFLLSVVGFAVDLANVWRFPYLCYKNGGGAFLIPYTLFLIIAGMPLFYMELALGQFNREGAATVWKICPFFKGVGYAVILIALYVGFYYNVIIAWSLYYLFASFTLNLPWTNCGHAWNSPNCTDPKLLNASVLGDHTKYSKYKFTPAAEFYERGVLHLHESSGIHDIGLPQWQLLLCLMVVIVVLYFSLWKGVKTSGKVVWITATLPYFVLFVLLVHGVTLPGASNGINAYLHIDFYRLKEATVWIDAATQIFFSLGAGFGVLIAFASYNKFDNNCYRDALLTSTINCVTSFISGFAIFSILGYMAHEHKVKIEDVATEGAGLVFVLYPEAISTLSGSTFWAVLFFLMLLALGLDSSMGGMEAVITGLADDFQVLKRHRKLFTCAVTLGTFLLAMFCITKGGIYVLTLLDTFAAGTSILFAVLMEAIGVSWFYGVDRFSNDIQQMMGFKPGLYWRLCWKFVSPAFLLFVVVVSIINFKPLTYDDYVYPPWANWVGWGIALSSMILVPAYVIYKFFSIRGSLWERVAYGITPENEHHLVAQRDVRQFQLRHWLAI
Text: I. Method for Determining the Noradrenaline and 5HT Uptake Inhibition:
For in vitro studies, synaptosomes were freshly isolated from rat brain areas as described in the publication “The isolation of nerve endings from brain” by E. G. Gray and V. P. Whittaker, J. Anatomy 96, pages 79-88, 1962. The corresponding literature description is introduced hereby as reference and forms part of the disclosure.
The tissue (hypothalamus for determining the noradrenaline uptake inhibition and medulla and pons for determining the 5HT uptake inhibition) was homogenized in ice-cold 0.32 M sucrose (100 mg of tissue/1 ml) in a glass homogenizer with Teflon pestle using five full up and down strokes at 840 revolutions/minute. The homogenate was centrifuged at 1000 g and at 4° C. for 10 minutes. After subsequent centrifugation at 17 000 g for 55 minutes, the synaptosomes (P2 fraction) are obtained and were resuspended in 0.32 M […] (0.5 ml/100 mg of the original weight).
The respective uptake was measured in a 96-well microtiter plate. The volume was 250 μl and incubation took place at room temperature (approx. 20-25° C.) under an O2 atmosphere.
The incubation time was 7.5 minutes for [^3H]-NA and 5 minutes for [^3H]-5-HT. The 96 samples were then filtered through a Unifilter GF/B® microtiter plate (Packard) and washed with […] of incubated buffer using a “Brabdel MPXRI-96T Cell Harvester”. The Unifilter GF/B plate was dried at 55° C. for 1 h. The plate was then sealed with a Back Seal® (Packard) and 35 μl of scintillation fluid were added per well (Ultima Gold®, Packard). After sealing with a top Seal® (Packard), the radioactivity was determined, after equilibrium had been reached (about 5 h), in a “Trilux 1450 Microbeta” (Wallac).
The following characteristic data were found for the NA transporter:
The amount of protein employed in the above determination corresponded to the value disclosed in the literature, as described for example in “Protein measurement with the folin phenol reagent”, Lowry et al., J. Biol. Chem., 193, 265-275, 1951. A detailed description of the method can also be found in the literature, for example from M. Ch. Frink, H.-H. Hennies, W. Engelberger, M. Haurand and B. Wilffert (1996) Arzneim.-Forsch./Drug Res. 46 (III), 11, 1029-1036. The corresponding literature descriptions are hereby introduced as reference and form part of the disclosure.

mGluR5 receptor = molecular target: T2, mGluR5 receptor (Sus scrofa, UniProt I3LUI7); test: Affinity for the mGluR5 receptor: displacement of 3[H]-MPEP binding in pig brain homogenate; conditions: 10 μM compound, 5 nM 3[H]-MPEP
T2 construct: 450 μg of protein from brain homogenate are incubated with 5 nM^3[H]-MPEP; from tissue; host or cells: pig brain hemispheres without medulla, cerebellum and pons
T2 sequence (I3LUI7 19-1212): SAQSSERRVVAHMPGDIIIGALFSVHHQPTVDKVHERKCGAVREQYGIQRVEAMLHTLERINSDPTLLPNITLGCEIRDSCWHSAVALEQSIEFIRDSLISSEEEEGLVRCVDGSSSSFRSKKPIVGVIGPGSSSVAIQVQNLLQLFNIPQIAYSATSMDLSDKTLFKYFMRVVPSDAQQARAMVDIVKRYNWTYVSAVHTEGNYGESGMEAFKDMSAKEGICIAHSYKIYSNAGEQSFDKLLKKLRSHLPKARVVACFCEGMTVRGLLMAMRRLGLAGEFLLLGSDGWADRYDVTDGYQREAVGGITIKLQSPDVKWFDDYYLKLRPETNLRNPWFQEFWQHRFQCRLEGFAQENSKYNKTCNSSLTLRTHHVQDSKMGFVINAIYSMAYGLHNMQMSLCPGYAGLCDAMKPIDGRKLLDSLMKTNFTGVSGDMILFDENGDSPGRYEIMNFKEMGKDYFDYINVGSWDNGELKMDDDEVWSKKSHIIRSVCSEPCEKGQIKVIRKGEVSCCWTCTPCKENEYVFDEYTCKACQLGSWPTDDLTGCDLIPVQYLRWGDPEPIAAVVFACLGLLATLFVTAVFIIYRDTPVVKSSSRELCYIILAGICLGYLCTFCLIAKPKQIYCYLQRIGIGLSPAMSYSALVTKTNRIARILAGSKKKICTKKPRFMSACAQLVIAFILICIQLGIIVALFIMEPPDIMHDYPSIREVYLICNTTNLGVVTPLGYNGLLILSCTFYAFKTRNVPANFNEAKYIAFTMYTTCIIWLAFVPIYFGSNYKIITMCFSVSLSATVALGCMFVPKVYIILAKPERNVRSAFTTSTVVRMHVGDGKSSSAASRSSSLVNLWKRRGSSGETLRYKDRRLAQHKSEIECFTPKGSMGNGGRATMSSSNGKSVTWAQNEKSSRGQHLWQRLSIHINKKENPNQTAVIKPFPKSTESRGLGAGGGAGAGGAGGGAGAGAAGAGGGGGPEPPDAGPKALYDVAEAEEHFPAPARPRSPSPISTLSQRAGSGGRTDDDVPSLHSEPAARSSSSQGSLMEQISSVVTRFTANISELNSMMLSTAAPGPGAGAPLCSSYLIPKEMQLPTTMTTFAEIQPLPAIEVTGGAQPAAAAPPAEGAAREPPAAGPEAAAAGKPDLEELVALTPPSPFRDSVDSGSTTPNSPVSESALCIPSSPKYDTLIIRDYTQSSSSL
Description: II. Method for Determining the Affinity for the mGluR5 Receptor
In each case 450 μg of protein from brain homogenate are incubated with 5 nM^3[H]-MPEP (Tocris, order No. R1212) (MPEP=2-methyl-6-[…]) and the compounds to be investigated (10 μM in the assay) in buffer (as above) in 250 μl incubation mixtures in 96-well microtiter plates at room temperature for 60 min.
The filter plates were then dried at 55° C. for 60 min.

| inhibition at 10 µM (mGluR5 receptor) [%] | Structure (SMILES) | also measured |
| --- | --- | --- |
| 38.4 | O=C(Nc1noc2ccc(Br)cc12)c1ccccc1Br [Example 140, 2-bromo-N-(5-bromobenzo[d]isoxazol-3-yl)benzamide] | – |
| 53.8 | O=C(Nc1noc2ccc(F)cc12)c1ccc(F)cc1F [Example 105, 2,4-difluoro-N-(5-fluorobenzo[d]isoxazol-3-yl)benzamide] | – |
| 33.1 | O=C(Nc1noc2ccc(Br)cc12)c1cc(F)ccc1C(F)(F)F [Example 141, N-(5-bromobenzo[d]isoxazol-3-yl)-5-fluoro-2-trifluoromethylbenzamide] | – |
| 35.2 | CC(C)(C)c1ccc(C(=O)Nc2noc3cc(Cl)ccc23)cc1 [Example 109, 4-tert-butyl-N-(6-chlorobenzo[d]isoxazol-3-yl)benzamide] | – |
| 30.8 | CC(C)(C)c1ccc(C(=O)Nc2noc3c(F)cccc23)cc1 [Example 94, 4-tert-butyl-N-(7-fluorobenzo[d]isoxazol-3-yl)benzamide] | – |
| 34.7 | O=C(Nc1noc2cc(Cl)ccc12)c1ccccc1Cl [Example 108, 2-chloro-N-(6-chlorobenzo[d]isoxazol-3-yl)benzamide] | – |
| 41.2 | O=C(Nc1noc2ccc(F)cc12)c1ccccc1Br [Example 103, 2-bromo-N-(5-fluorobenzo[d]isoxazol-3-yl)benzamide] | – |
| 32 | COc1ccccc1C(=O)Nc1noc2c(F)cccc12 [Example 98, N-(7-fluorobenzo[d]isoxazol-3-yl)-2-methoxybenzamide] | – |
| 32.2 | Cc1ccc2onc(NC(=O)c3ccc(F)cc3)c2c1 [Example 121, 4-fluoro-N-(5-methylbenzo[d]isoxazol-3-yl)benzamide] | – |
| 32.4 | COc1cccc2onc(NC(=O)c3ccccc3Cl)c12 [Example 157, 2-chloro-N-(4-methoxybenzo[d]isoxazol-3-yl)benzamide] | – |
| 33.8 | COc1cccc2onc(NC(=O)c3ccccc3C)c12 [Example 156, N-(4-methoxybenzo[d]isoxazol-3-yl)-2-methylbenzamide] | – |
| 32.5 | O=C(Nc1noc2cccc(F)c12)c1ccccc1F [Example 149, 2-fluoro-N-(4-fluorobenzo[d]isoxazol-3-yl)benzamide] | – |
| 39.5 | Cc1ccc2onc(NC(=O)c3cccc(F)c3F)c2c1 [Example 126, 2,3-difluoro-N-(5-methylbenzo[d]isoxazol-3-yl)benzamide] | – |

The remaining lines, values behind:

| Structure (SMILES) | inhibition at 10 µM (mGluR5 receptor) [%] | also measured |
| --- | --- | --- |
| CN(C)c1cccc2onc(NC(=O)c3ccc(F)c(F)c3)c12 [Example 69, N-(4-dimethylaminobenzo[d]isoxazol-3-yl)-3,4-difluorobenzamide] | – | inhibition at 10 µM (NA transporter): 67% |
| O=C(Nc1noc2cc(Cl)ccc12)c1ccc(I)cc1 [Example 40, N-(6-chlorobenzo[d]isoxazol-3-yl)-4-iodobenzamide] | – | inhibition at 10 µM (NA transporter): 61% |
| O=C(Nc1noc2c(F)cccc12)c1ccc(F)c(F)c1 [Example 59, 3,4-difluoro-N-(7-fluorobenzo[d]isoxazol-3-yl)benzamide] | – | inhibition at 10 µM (NA transporter): 67% |
| O=C(Nc1noc2cccc(OCC(F)(F)F)c12)c1cccc(C(F)(F)F)c1F [Example 83, 2-fluoro-N-[4-(2,2,2-trifluoroethoxy)benzo[d]isoxazol-3-yl]-3-trifluoromethyl-benzamide] | – | inhibition at 10 µM (NA transporter): 65% |
| CN(C)c1cccc2onc(NC(=O)C(C)(C)C)c12 [Example 72, N-(4-dimethylaminobenzo[d]isoxazol-3-yl)-2,2-dimethylpropionamide] | – | inhibition at 10 µM (NA transporter): 66% |
| CCC(C)C(=O)Nc1noc2cccc(Cl)c12 (centres unmarked) [Example 154, N-(4-chlorobenzo[d]isoxazol-3-yl)-2-methylbutyramide] | 30 | – |
| CN(C)c1cccc2onc(NC(=O)C34CC5CC(CC(C5)C3)C4)c12 [Example 172, adamantane-1-(4-dimethylaminobenzo[d]isoxazol-3-yl)carboxamide] | – | mGluR5 receptor inhibition of the 3[H]-MPEP binding in % (10 μM) (mGluR5 receptor): 51.40% |
| CN(C)c1cccc2onc(NC(=O)c3cccc([N+](=O)[O-])c3)c12 [Example 171, N-(4-dimethylaminobenzo[d]isoxazol-3-yl)-3-nitrobenzamide] | 42.3 | – |
| CCCC(C)C(=O)Nc1noc2ccc(C)cc12 (centres unmarked) [Example 146, N-(5-methylbenzo[d]isoxazol-3-yl)-2-methylpentanamide] | 34 | – |
| O=C(Nc1noc2cc(F)ccc12)c1cccc2ccccc12 [Example 101, naphthalene-1-(6-fluorobenzo[d]isoxazol-3-yl)carboxamide] | – | mGluR5 receptor inhibition of the 3[H]-MPEP binding in % (10 μM) (mGluR5 receptor): 48.99% |
| COc1ccc(C(=O)Nc2noc3ccc(Br)cc23)cc1OC [Example 137, N-(5-bromobenzo[d]isoxazol-3-yl)-3,4-dimethoxybenzamide] | 31.2 | – |
| Cc1ccc(C(=O)Nc2noc3ccc(Br)cc23)cc1 [Example 138, N-(5-bromobenzo[d]isoxazol-3-yl)-4-methylbenzamide] | 32 | – |
| CCCc1ccc(C(=O)Nc2noc3cccc(OCc4ccc(C)cc4)c23)cc1 [Example 168, N-[4-(4-methylbenzyloxy)benzo[d]isoxazol-3-yl]-4-propylbenzamide] | 32.2 | – |
| CCCCC(CC)C(=O)Nc1noc2ccccc12 (centres unmarked) [Example 85, N-benzo[d]isoxazol-3-yl-2-ethylhexanamide] | 63.2 | – |
| CN(C)c1cccc2onc(NC(=O)c3cc4ccccc4s3)c12 [Example 173, benzo[b]thiophene-2-(4-dimethylaminobenzo[d]isoxazol-3-yl)carboxamide] | – | mGluR5 receptor inhibition of the 3[H]-MPEP binding in % (10 μM) (mGluR5 receptor): 43.55% |
| Nc1c(F)c(F)c2c(NC(=O)c3ccc(F)cc3F)noc2c1F [Example 177, N-(6-amino-4,5,7-trifluorobenzo[d]isoxazol-3-yl)-2,4-difluorobenzamide] | 30.8 | – |
| O=C(Nc1noc2cc(Br)ccc12)c1cccs1 [Example 116, thiophene-2-(6-bromobenzo[d]isoxazol-3-yl)carboxamide] | – | mGluR5 receptor inhibition of the 3[H]-MPEP binding in % (10 μM) (mGluR5 receptor): 37.71% |
| Cc1ccc(COc2cccc3onc(NC(=O)c4cccc([N+](=O)[O-])c4)c23)cc1 [Example 167, N-[4-(4-methylbenzyloxy)benzo[d]isoxazol-3-yl]-3-nitrobenzamide] | 39.7 | – |
| COc1cccc(OC)c1C(=O)Nc1noc2ccc(Br)cc12 [Example 139, N-(5-bromobenzo[d]isoxazol-3-yl)-2,6-dimethoxybenzamide] | 41.5 | – |
| CCCCC(CC)C(=O)Nc1noc2cccc(OC)c12 (centres unmarked) [Example 159, N-(4-methoxybenzo[d]isoxazol-3-yl)-2-ethylhexanamide] | 43.2 | – |
| Cc1cc(C(=O)Nc2noc3ccccc23)no1 [Example 91, 5-methylisoxazole-3-benzo[d]isoxazol-3-ylcarboxamide] | – | mGluR5 receptor inhibition of the 3[H]-MPEP binding in % (10 μM) (mGluR5 receptor): 35.00% |
| O=C(Nc1noc2cc(Cl)ccc12)c1cc(F)c(Cl)cc1Cl [Example 111, 2,4-dichloro-N-(6-chlorobenzo[d]isoxazol-3-yl)-5-fluorobenzamide] | 43 | – |
| CCC(C)C(=O)Nc1noc2cccc(OCC(F)(F)F)c12 (centres unmarked) [Example 163, 2-methyl-N-[4-(2,2,2-trifluoroethoxy)benzo[d]isoxazol-3-yl]butyramide] | 36 | – |
| Cc1ccc2onc(NC(=O)c3ccc(Br)cc3)c2c1 [Example 119, 4-bromo-N-(5-methylbenzo[d]isoxazol-3-yl)benzamide] | 37.9 | – |
| CC(C)(C)CC(=O)Nc1noc2ccc(F)cc12 [Example 130, N-(5-fluorobenzo[d]isoxazol-3-yl)-3,3-dimethyl butyramide] | – | mGluR5 receptor inhibition of the 3[H]-MPEP binding in % (10 μM) (mGluR5 receptor): 31.64% |
| CC(C)(C)CC(=O)Nc1noc2cccc(OCC(F)(F)F)c12 [Example 164, 3,3-dimethyl-N-[4-(2,2,2-trifluoroethoxy)benzo[d]isoxazol-3-yl]butyramide] | 33.4 | – |
| CCC(C)C(=O)Nc1noc2ccccc12 (centres unmarked) [Example 86, N-benzo[d]isoxazol-3-yl-2-methylbutyramide] | 39.6 | – |
| CCC(C)C(=O)Nc1noc2ccc(Br)cc12 (centres unmarked) [Example 135, N-(5-bromobenzo[d]isoxazol-3-yl)-2-methyl butyramide] | – | mGluR5 receptor inhibition of the 3[H]-MPEP binding in % (10 μM) (mGluR5 receptor): 40.00% |
